In patent US20220112470A1, “SYSTEMS AND METHODS FOR METABOLIC ENGINEERING” (THE TRUSTEES OF COLUMBIA UNIVERSITY IN THE CITY OF NEW YORK, priority 2019, published 2022):

Key:
[1] = molecular target: LexA-TetR(B) fusion protein (Escherichia coli, UniProt P04483); details: purified TAN-1612 0.5 μM in assay well, 10 μM CID, FIG. 4B
Procedure: Protocol for Fluorescent Protein Y3H Assay. Fresh patches of Y3H strain HL-2-4-1 were inoculated into HTU-media (1 mL) in 24-well plates (flat, clear bottom, Corning no. 3526) and placed in the shaker. After 24 h, the cells were pelleted by centrifugation at 3250 rpm and resuspended in H2O (1 mL). Pelleting and resuspension were repeated once more. OD600 was measured by diluting 10× into H2O, and the cells were diluted accordingly into H2O for OD600=1 to be used as a 10× solution. A total of 20 μL of cells of OD600=1 were added to the assay plate as the last component in the assay plate (flat, clear bottom, black 96-well plate, Corning no. 3603). […] Starting conditions in the assay plate were OD600=0.1, 2% galactose, 2% raffinose, 0% glucose, 1×HTU-, 10 μM CID, 2% DMSO. The assay plate was placed in the 30° C. shaker overnight before measuring OD600 and 620 nm fluorescence (λex=588 nm).^31
Overnight cultures were used to inoculate 100 mL of YPD in 500 mL conical flasks with a starting OD600 of 0.08. After 68 h, 1 mL of culture was pelleted in 1.5 mL Eppendorf tubes at 14 000 rpm, sterile filtered, and diluted 20× into H2O to be used as a 10× stock solution.
The plate was covered with two layers of SealMate film (Excel Scientific, SM-KIT-BS) and placed in a shaker overnight. […]

[2] = system: LexA-TetR fusion proteins of TetR classes A, B, C, D, E, G and H; assay: Y3H LacZ assay with varying TetR classes; format: cell-based, Saccharomyces cerevisiae; details: FIG. 2B
Procedure: Y3H Strain Construction. LexA-TetR Plasmids. Plasmids PBA-Gib5 and HL-249-1 through HL-249-6 encoding LexA-TetR protein fusions for the various TetR classes were cloned by Gibson Assembly of the appropriate TetR sequence with pMW103 digested with restriction enzymes BamHI-HF and EcoRI-HF (Table 3). All TetR sequences with the exception of B) were obtained as IDT gBlocks. TetR(B) sequence was amplified from pET21d-TetR, courtesy of A. Davidson.^25,26
LacZ Assay Strain Construction. V506 was grown overnight in UT-media.^27 The culture was then diluted […] with UT- and plated on UT-plates. Single colonies were streaked on HTU- and UT-plates and a streak growing on UT- but not on HTU-, indicating the loss of the pMW3-(GSG)2rGR2 plasmid, was glycerol stocked as PBA5. This strain was further used for the transformation of the LexA-TetR plasmids to generate LacZ assay strains PBA8 and HL-260-1 through HL-260-7.
Protocol for Y3H LacZ Assay. […] Pelleting and resuspension were repeated once more. […] The assay plate was placed in the shaker overnight. […] After pelleting at 3000 rpm, 175 μL of the supernatant was transferred into flat clear-bottom 96-well plates (Corning no. 353072), and OD420 was measured. The limit of detection was calculated as the concentration of molecule at which the signal-to-noise ratio of the assay was >3:1.^32,33

LexA-TetR fusion protein = molecular target: T1, LexA-TetR fusion protein (Escherichia coli, UniProt P04483); assay: Y3H LacZ assay for tetracyclines; format: cell-based, Saccharomyces cerevisiae
T1 construct: expressed in transfected cells; host or cells: Saccharomyces cerevisiae: FY250-derived PBA-8 (LacZ), LW2635-derived PBA-14 (URA3 growth), FY250-derived HL-2-4-1 (mCherry); the other entry of the earlier key: lexA (P0A7C2, LexA repressor)
Procedure: Protocol for Y3H LacZ Assay. […] Pelleting and resuspension were repeated once more. […] The assay plate was placed in the shaker overnight. OD measurements were then taken after 24 h, and the cells ere pelleted and resuspended in 100 μL of Z-buffer (60 mM Na2HPO4, 40 mM NaH2PO4, 10 mM KCl, 2 mM MgSO4, pH adjusted to 7, 2.7 mL/L of β-mercaptoethanol added fresh the day of the assay). The cells were pelleted again, resuspended in 100 μL of Y-PER buffer (Fisher Scientific, no. 78990), and lysed for 30 min at rt before the addition of o-nitrophenyl β-Dgalactopyranoside (ONPG) in Z-buffer (8.5 μL, 10 mg/mL). After 90 min, a Na2CO3 solution (1 M, 110 μL) was added to quench the reaction. After pelleting at 3000 rpm, 175 μL of the supernatant was transferred into flat clear-bottom 96-well plates (Corning no. 353072), and OD420 was measured. The limit of detection was calculated as the concentration of molecule at which the signal-to-noise ratio of the assay was >3:1.^32,33

TetR [3] = molecular target: T2, TetR (Escherichia coli, UniProt P04483); details: literature (ref. 37); cited from earlier work
TetR [4] = molecular target: T2, TetR; details: literature (ref. 37); cited from earlier work; remark: listed apart in the source
[5] = relative to tetracycline, literature (ref. 55); cited from earlier work

For COc1cc(O)c2c(O)c3c(cc2c1)CC1(O)CC(=O)C(C(C)=O)=C(O)C1(O)C3=O (centres unmarked) [TAN-1612], the “Y3H signal (mCherry) of purified compound spiked into nonproducer supernatants” value [1] was “resembles the signal obtained with producer supernatant”.
With CN(C)c1cc(NC(=O)CNC(=O)CC[C@H](NC(=O)c2ccc(N(C)Cc3ccc4nc(N)nc(N)c4c3)cc2)C(=O)O)c(O)c2c1C[C@H]1C[C@H]3C(N(C)C)C(O)=C(C(N)=O)C(=O)[C@@]3(O)C(O)=C1C2=O (some centres unmarked) [Min-Mtx CID] the “response to the CID, best TetR classes” value ([2]; TetR(B) and TetR(G)) was “showed the best response to the CID”, the “responsiveness of the Y3H system to the CID” value ([2]; all TetR classes tested as protein receptors) was “responsive to the CID with all known TetR classes except for the TetR(C) variant used” and the “reporter gene output dependence on CID” value (LexA-TetR fusion protein; varying concentrations of Min-Mtx CID, FIG. 2A) was “dependent upon the presence of the CID”.
In the case of Cc1c2c(c(O)c3c(O)cccc13)C(=O)C1(O)C(=O)C(C(N)=O)=C(O)CC1C2 (centres unmarked) [4-de(dimethylamino)-anhydrotetracycline], the “induction in TetR-TetO-based assay” value (TetR [3]) is given as “no induction was detected” and the “binding to TetR” value (TetR [4]) is given as “possible to detect binding”.
In the case of 9-NH2-minocycline, the acid stability [5] is listed as “high acid stability relative to tetracycline” and the “concentrations differentiated by the Y3H system (range)” value (LexA-TetR fusion protein; LacZ reporter, competition with Min-Mtx CID, FIG. 2C) is listed as 0.2 to 20 µM.
